Test results as given in patent publication US20240336608A1, “IL4I1 INHIBITORS AND METHODS OF USE” (Merck Sharp & Dohme LLC, priority 2023, published 2024).

molecular target: T1, recombinant IL4I1 (Homo sapiens, UniProt Q96RQ9); assay: IL4I1 Enzymatic Assay (Amplex Red/HRP coupled detection of H2O2, fluorescence); type: biochemical; settings: 1 nM recombinant IL4I1; four-hour pre-incubation with compound; 1 mM each Phe, Tyr, Trp; ten-point titration
T1 construct: purchased R&D Systems 5684-AO-020
T1 sequence (Q96RQ9 22-567): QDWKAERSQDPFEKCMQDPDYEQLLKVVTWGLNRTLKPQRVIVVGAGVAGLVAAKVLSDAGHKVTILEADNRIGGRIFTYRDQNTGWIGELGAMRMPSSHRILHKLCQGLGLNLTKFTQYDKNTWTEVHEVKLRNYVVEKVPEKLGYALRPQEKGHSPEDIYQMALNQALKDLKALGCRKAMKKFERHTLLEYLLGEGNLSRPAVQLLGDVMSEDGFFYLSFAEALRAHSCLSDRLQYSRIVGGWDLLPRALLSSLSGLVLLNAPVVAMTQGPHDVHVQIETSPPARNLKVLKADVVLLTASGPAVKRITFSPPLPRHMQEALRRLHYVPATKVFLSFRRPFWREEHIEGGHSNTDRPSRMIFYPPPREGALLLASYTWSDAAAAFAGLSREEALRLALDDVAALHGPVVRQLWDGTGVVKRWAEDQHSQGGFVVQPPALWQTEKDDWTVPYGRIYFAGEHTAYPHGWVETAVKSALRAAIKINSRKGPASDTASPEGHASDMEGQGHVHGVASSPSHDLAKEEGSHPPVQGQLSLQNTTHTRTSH
Procedure: Interleukin 4 inducible protein 1 (IL4I1) is an L-amino oxidase that catalyzes the oxidation of aromatic residues (Phe, Trp and Tyr): L-amino acid+H2O+O2→2-oxo acid+NH3+H2O2. Equal molar of H2O2 and the corresponding alpha-ketoacid are produced when IL4I1 and substrate are added. In this assay, the hydrogen peroxide generated by IL4I1 is then detected through a coupled reaction with Amplex Red (10-acetyl-3,7-dihydroxyphenoxazine) and […] (HRP) to produce Resorufin product that could be detected in the form of fluorescence signals. The assessment of the inhibitory effect of small molecules (EC50) on IL4I1 is measured by the effectiveness of the compounds to inhibit the production of H202.
Using this assay, the potency (EC50) of each compound was determined from a ten-point (1:3 serial dilution) titration curve using the following outlined procedure. To each well of a black flat-bottom Greiner (Cat #781076) 384 well-plate, 125 nL of compound (0.5% DMSO in final assay volume of 25 μL) was dispensed, followed by the addition of 12.5 μL of 1× assay buffer (50 mM Hepes 7.0 and 0.005% Tween20 (Sigma, Cat #P8341; low peroxide grade)) containing 2 nM of recombinant IL4I1 (R&D Systems, Cat #5684-AO-020). Plates were placed in an ambient temperature humidified chamber for a four-hour pre-incubation with compound. Subsequently, each reaction was initiated by the addition of 12.5 μL 1× assay buffer containing 2 mM of each aromatic amino acids (Phe/Tyr/Trp), 0.1 mM Amplex Red and 2 U/mL of HRP. The final reaction in each well of 25 μL consists of 1 nM of IL4I1, 1 mM of each residue (Phe, Tyr and Trp), 0.05 mM Amplex Red and 1 U/mL of HRP. It should be noted that the concentrations of Amplex Red and HRP used here are in excess such that the conversion of H2O2 to Resorufin product occurs instantaneously and non-rate limiting. Reactions were allowed to proceed for 120 minutes followed by fluorescence readout on a Spectramax with the following set parameters: 544 nm excitation/590 nm emission, 570 nm cutoff (EnVision is an alternative reader). Dose-response curves were generated by plotting percent effect (% inhibition; Y-axis) vs. Log10 compound concentrations (X-axis). EC50 values were calculated using a non-linear regression, four-parameters sigmoidal dose-response model and are shown in Table 16.

Compared with `Cc1ccc(-n2cc(C(=O)NCc3cc(-c4nccs4)on3)nn2)c(C)n1` [Example 273, 1-(2,6-dimethylpyridin-3-yl)-N-((5-(thiazol-2-yl)isoxazol-3-yl)methyl)-1H-1,2,3-triazole-4-carboxamide], `Cc1ccc(-n2cc(C(=O)NCc3nnc(-c4ccsc4C)s3)nn2)c(C)n1` [Example 109, 1-(2,6-dimethylpyridin-3-yl)-N-((5-(2-methylthiophen-3-yl)-1,3,4-thiadiazol-2-yl)methyl)-1H-1,2,3-triazole-4-carboxamide] is 18-fold lower in EC50: 511 nM for the first, 29 nM for the second.

First: C[C@@H](C(F)F)n1cc(C(=O)NCc2nnc(-c3ccccc3)s2)nn1 [Example 167, (S)-1-(1,1-difluoropropan-2-yl)-N-((5-phenyl-1,3,4-thiadiazol-2-yl)methyl)-1H-1,2,3-triazole-4-carboxamide]
Second: O=C(NCc1nnc(-c2ccccc2)s1)c1cn(C(F)F)nn1 [Example 272, 1-(difluoromethyl)-N-((5-phenyl-1,3,4-thiadiazol-2-yl)methyl)-1H-1,2,3-triazole-4-carboxamide]
The EC50 of the first is 1.7-fold lower: 7 nM for the first, 12 nM for the second. The first is the more potent here.

Going from `O=C(NCc1nnc(-c2ccccc2)s1)c1cn(C23CC(C2)C3)nn1` [Example 172, 1-(bicyclo[1.1.1]pentan-1-yl)-N-((5-phenyl-1,3,4-thiadiazol-2-yl)methyl)-1H-1,2,3-triazole-4-carboxamide] to `O=C(NCc1nnc(-c2ccccc2)s1)c1cn(C23CC(F)(C2)C3)nn1` [Example 173, 1-(3-fluorobicyclo[1.1.1]pentan-1-yl)-N-((5-phenyl-1,3,4-thiadiazol-2-yl)methyl)-1H-1,2,3-triazole-4-carboxamide], the EC50 rises from 49 nM to 334 nM (6.8-fold).

First: O=C(NCc1nnc(-c2ccccc2)s1)c1cc(C(F)(F)F)n[nH]1 [Example 28, N-[(5-phenyl-1,3,4-thiadiazol-2-yl)methyl]-3-(trifluoromethyl)-1H-pyrazole-5-carboxamide]
Second: O=C(NCc1nnc(-c2ccccc2)s1)c1cn(CCC(F)(F)F)nn1 [Example 62, N-((5-phenyl-1,3,4-thiadiazol-2-yl)methyl)-1-(3,3,3-trifluoropropyl)-1H-1,2,3-triazole-4-carboxamide]
The EC50 of the first is 100-fold higher: 710 nM for the first, 7 nM for the second. The second is the more potent here.

First: CC(CC(F)(F)F)n1cc(C(=O)NCc2nnc(-c3ccccc3)s2)nn1 (single isomer, unassigned) [Example 64, N-((5-phenyl-1,3,4-thiadiazol-2-yl)methyl)-1-(4,4,4-trifluorobutan-2-yl)-1H-1,2,3-triazole-4-carboxamide]
Second: C[C@H](O)[C@H](CO)n1cc(C(=O)NCc2nnc(-c3ccccc3)s2)nn1 [Example 186, 1-((2S,3S)-1,3-dihydroxybutan-2-yl)-N-((5-phenyl-1,3,4-thiadiazol-2-yl)methyl)-1H-1,2,3-triazole-4-carboxamide]
The EC50 of the first is 2.9-fold lower: 93 nM for the first, 274 nM for the second. The first is the more potent here.

Going from `O=C(NCc1cc(-c2ccccc2)no1)c1cn(CC(F)(F)F)nn1` [Example 231, N-((3-phenylisoxazol-5-yl)methyl)-1-(2,2,2-trifluoroethyl)-1H-1,2,3-triazole-4-carboxamide] to `CC(C)(O)Cn1cc(C(=O)NCc2nnc(-c3ccccc3)s2)nn1` [Example 323, 1-(2-hydroxy-2-methylpropyl)-N-((5-phenyl-1,3,4-thiadiazol-2-yl)methyl)-1H-1,2,3-triazole-4-carboxamide], the EC50 rises from 30 nM to 205 nM (6.8-fold).

Going from `COC(=O)C(C)(C)n1cc(C(=O)NCc2nnc(-c3ccccc3)s2)nn1` [Example 255, methyl 2-methyl-2-(4-(((5-phenyl-1,3,4-thiadiazol-2-yl)methyl)carbamoyl)-1H-1,2,3-triazol-1-yl)propanoate] to `CC(C)(O)Cn1cc(C(=O)NCc2nnc(-c3ccccc3)s2)nn1` [Example 201, 1-(2-hydroxy-2-methylpropyl)-N-((5-phenyl-1,3,4-thiadiazol-2-yl)methyl)-1H-1,2,3-triazole-4-carboxamide], the EC50 rises from 45 nM to 226 nM (5-fold). The first is the more potent here.

`Cc1ccc(-n2cc(C(=O)NCc3nnc(-c4ccccc4)s3)nn2)c(C#N)n1` [Example 337, 1-(2-cyano-6-methylpyridin-3-yl)-N-((5-phenyl-1,3,4-thiadiazol-2-yl)methyl)-1H-1,2,3-triazole-4-carboxamide] and `Cc1ccc(-n2cc(C(=O)NCc3nnc(-c4ccccc4)s3)nn2)c(N)n1` [Example 340, 1-(2-amino-6-methylpyridin-3-yl)-N-((5-phenyl-1,3,4-thiadiazol-2-yl)methyl)-1H-1,2,3-triazole-4-carboxamide] are within 1.5-fold of each other in EC50: 53 nM for the first, 36 nM for the second.

Going from `Cc1ccc(-n2cc(C(=O)NCc3nnc(-c4ccccc4)s3)nn2)cn1` [Example 267, 1-(6-methylpyridin-3-yl)-N-((5-phenyl-1,3,4-thiadiazol-2-yl)methyl)-1H-1,2,3-triazole-4-carboxamide] to `Cc1ccc(-n2cc(C(=O)NCc3nnc(-c4ccccc4)s3)nn2)c(C(C)(C)O)n1` [Example 338, 1-(2-(2-hydroxypropan-2-yl)-6-methylpyridin-3-yl)-N-((5-phenyl-1,3,4-thiadiazol-2-yl)methyl)-1H-1,2,3-triazole-4-carboxamide], the EC50 falls from 145 nM to 24 nM (6-fold). The second is the more potent here.

`O=C(NCc1nnc(-c2ccccc2)s1)c1cn(CC(F)F)nn1` [Example 213] and `CCCn1cc(C(=O)NCc2nnc(-c3ccccc3)s2)nn1` [Example 92, N-((5-phenyl-1,3,4-thiadiazol-2-yl)methyl)-1-propyl-1H-1,2,3-triazole-4-carboxamide] are the same in EC50: 3 nM for the first, 3 nM for the second.

First: O=C(NCc1nnc(-c2ccccc2)s1)c1cn(CCCO)nn1 [Example 194, 1-(3-hydroxypropyl)-N-((5-phenyl-1,3,4-thiadiazol-2-yl)methyl)-1H-1,2,3-triazole-4-carboxamide]
Second: CS(=O)(=O)Cn1cc(C(=O)NCc2nnc(-c3ccccc3)s2)nn1 [Example 308, 1-((methylsulfonyl)methyl)-N-((5-phenyl-1,3,4-thiadiazol-2-yl)methyl)-1H-1,2,3-triazole-4-carboxamide]
The EC50 of the first is 11-fold lower: 7 nM for the first, 75 nM for the second.

`CC1(O)CCC(n2cc(C(=O)NCc3nnc(-c4ccccc4)s3)nn2)CC1` (stereo not shown) [Example 97, 1-(4-hydroxy-4-methylcyclohexyl)-N-((5-phenyl-1,3,4-thiadiazol-2-yl)methyl)-1H-1,2,3-triazole-4-carboxamide] and `O=C(NCc1nnc(-c2ccccc2)s1)c1cn(C2CN(C(=O)C3CC3)C2)nn1` [Example 103, 1-(1-(cyclopropanecarbonyl)azetidin-3-yl)-N-((5-phenyl-1,3,4-thiadiazol-2-yl)methyl)-1H-1,2,3-triazole-4-carboxamide] are within 1.5-fold of each other in EC50: 486 nM for the first, 542 nM for the second.

Going from `Cc1ccsc1C(=O)NCc1nnc(-c2ccccc2)s1` [Example 15, 3-methyl-N-[(5-phenyl-1,3,4-thiadiazol-2-yl)methyl]thiophene-2-carboxamide] to `O=C(NCc1nnc(-c2ccccc2)s1)c1cn(CC2CCCC2)nn1` [Example 78, 1-(cyclopentylmethyl)-N-((5-phenyl-1,3,4-thiadiazol-2-yl)methyl)-1H-1,2,3-triazole-4-carboxamide], the EC50 falls from 153 nM to 34 nM (4.5-fold).

Compared with `Cc1ccc(-n2cc(C(=O)NCc3nnc(-c4ccccc4C)s3)nn2)c(C)n1` [Example 107, 1-(2,6-dimethylpyridin-3-yl)-N-((5-(o-tolyl)-1,3,4-thiadiazol-2-yl)methyl)-1H-1,2,3-triazole-4-carboxamide], `CC(C#N)n1cc(C(=O)NCc2cc(-c3ccncc3)no2)nn1` (single isomer, unassigned) [Example 285, 1-(1-cyanoethyl)-N-((3-(pyridin-4-yl)isoxazol-5-yl)methyl)-1H-1,2,3-triazole-4-carboxamide] is 3.2-fold higher in EC50: 58 nM for the first, 184 nM for the second.
